# In the supplement of paper PMC10307832:
# How the values were obtained:
# Assay in all cases: relative viability (nuclei count vs DMSO), 5 days (fraction); higher = more cells survive
# [1] = system: SW 900
# In short: (§1)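 Cells from lung cancer lines were seeded into 1536-well plates and, one day later, dosed by pin tool. Treatments were either a single drug or a fixed dose of an anchor drug with five library-drug doses (not always all listed) in √10 steps. After 5 days, nuclei were stained in a one-step fixation (final 0.05% Triton X-100, 1% formaldehyde, 1 ug/ml Hoechst) and counted on 4× images, and relative viability is the treated-to-vehicle nuclei ratio, as the median of duplicate plates.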
# [2] = system: H3255
# In short: as §1
# [3] = system: NCI-H1563
# In short: as §1
# [4] = system: NCI-H1650
# In short: as §1
# [5] = system: LOU-NH91
# In short: as §1
# [6] = system: NCI-H2023
# In short: as §1
# [7] = system: EPLC-272H
# In short: as §1
# [8] = system: NCI-H1734
# In short: as §1
# [9] = system: 201T
# In short: as §1
# [10] = system: NCI-H2085
# In short: as §1
# [11] = system: RERF-LC-KJ
# In short: as §1
# [12] = system: COR-L23
# In short: as §1
# [13] = system: NCI-H2170
# In short: as §1
# [14] = system: NCI-H647
# In short: as §1
# [15] = system: NCI-H1993
# In short: as §1
# [16] = system: NCI-H3122
# In short: as §1
# [17] = system: NCI-H441
# In short: as §1
# [18] = system: NCI-H1793
# In short: as §1
# [19] = system: HCC-44
# In short: as §1
# [20] = system: PC-14
# In short: as §1
# [21] = system: NCI-H520
# In short: as §1
# [22] = system: NCI-H2405
# In short: as §1
# [23] = system: NCI-H2347
# In short: as §1
structure (smiles),measurement,setting,value
O=C(O)c1ccc(-c2c[nH]c3ncc(-c4ccccc4)cc23)cc1C1CCCC1 + N=C(N)NC(=N)NCCc1ccccc1 [Phenformin] (partner 250 µM),relative viability,[1]; first compound 0.04 µM,0.706
same,relative viability,[1]; first compound 0.1265 µM,0.615
same,relative viability,[1]; first compound 0.4 µM,0.654
same,relative viability,[1]; first compound 1.265 µM,0.381
same,relative viability,[2]; first compound 0.04 µM,0.343
same,relative viability,[2]; first compound 0.1265 µM,0.354
same,relative viability,[2]; first compound 0.4 µM,0.39
same,relative viability,[2]; first compound 1.265 µM,0.372
same,relative viability,[3]; first compound 0.04 µM,0.679
same,relative viability,[3]; first compound 0.1265 µM,0.679
same,relative viability,[3]; first compound 0.4 µM,0.634
same,relative viability,[3]; first compound 1.265 µM,0.654
same,relative viability,[4]; first compound 0.04 µM,0.469
same,relative viability,[4]; first compound 0.1265 µM,0.472
same,relative viability,[4]; first compound 0.4 µM,0.338
same,relative viability,[4]; first compound 1.265 µM,0.2
same,relative viability,[5]; first compound 0.04 µM,0.73
same,relative viability,[5]; first compound 0.1265 µM,0.885
same,relative viability,[5]; first compound 0.4 µM,0.799
same,relative viability,[5]; first compound 1.265 µM,0.751
same,relative viability,[6]; first compound 0.04 µM,0.412
same,relative viability,[6]; first compound 0.1265 µM,0.491
same,relative viability,[6]; first compound 0.4 µM,0.44
same,relative viability,[6]; first compound 1.265 µM,0.278
same,relative viability,[7]; first compound 0.04 µM,0.357
same,relative viability,[7]; first compound 0.1265 µM,0.295
same,relative viability,[7]; first compound 0.4 µM,0.356
same,relative viability,[7]; first compound 1.265 µM,0.328
same,relative viability,[8]; first compound 0.04 µM,0.419
same,relative viability,[8]; first compound 0.1265 µM,0.452
same,relative viability,[8]; first compound 0.4 µM,0.371
same,relative viability,[8]; first compound 1.265 µM,0.358
same,relative viability,[9]; first compound 0.04 µM,0.477
same,relative viability,[9]; first compound 0.1265 µM,0.45
same,relative viability,[9]; first compound 0.4 µM,0.456
same,relative viability,[9]; first compound 1.265 µM,0.437
same,relative viability,[10]; first compound 0.04 µM,0.84
same,relative viability,[10]; first compound 0.1265 µM,0.897
same,relative viability,[10]; first compound 0.4 µM,0.688
same,relative viability,[10]; first compound 1.265 µM,0.595
same,relative viability,[11]; first compound 0.04 µM,0.432
same,relative viability,[11]; first compound 0.1265 µM,0.456
same,relative viability,[11]; first compound 0.4 µM,0.389
same,relative viability,[11]; first compound 1.265 µM,0.369
same,relative viability,[12]; first compound 0.04 µM,0.424
same,relative viability,[12]; first compound 0.1265 µM,0.507
same,relative viability,[12]; first compound 0.4 µM,0.437
same,relative viability,[12]; first compound 1.265 µM,0.268
same,relative viability,[13]; first compound 0.04 µM,0.434
same,relative viability,[13]; first compound 0.1265 µM,0.413
same,relative viability,[13]; first compound 0.4 µM,0.459
same,relative viability,[13]; first compound 1.265 µM,0.362
same,relative viability,[14]; first compound 0.04 µM,0.611
same,relative viability,[14]; first compound 0.1265 µM,0.598
same,relative viability,[14]; first compound 0.4 µM,0.478
same,relative viability,[14]; first compound 1.265 µM,0.38
same,relative viability,[15]; first compound 0.04 µM,0.574
same,relative viability,[15]; first compound 0.1265 µM,0.475
same,relative viability,[15]; first compound 0.4 µM,0.477
same,relative viability,[15]; first compound 1.265 µM,0.513
same,relative viability,[16]; first compound 0.04 µM,0.355
same,relative viability,[16]; first compound 0.1265 µM,0.399
same,relative viability,[16]; first compound 0.4 µM,0.394
same,relative viability,[16]; first compound 1.265 µM,0.337
same,relative viability,[17]; first compound 0.04 µM,0.765
same,relative viability,[17]; first compound 0.1265 µM,1.15
same,relative viability,[17]; first compound 0.4 µM,0.807
same,relative viability,[17]; first compound 1.265 µM,0.28
same,relative viability,[18]; first compound 0.04 µM,0.404
same,relative viability,[18]; first compound 0.1265 µM,0.494
same,relative viability,[18]; first compound 0.4 µM,0.374
same,relative viability,[18]; first compound 1.265 µM,0.365
same,relative viability,[19]; first compound 0.04 µM,0.198
same,relative viability,[19]; first compound 0.1265 µM,0.295
same,relative viability,[19]; first compound 0.4 µM,0.224
same,relative viability,[19]; first compound 1.265 µM,0.141
same,relative viability,[20]; first compound 0.04 µM,0.588
same,relative viability,[20]; first compound 0.1265 µM,0.678
same,relative viability,[20]; first compound 0.4 µM,0.548
same,relative viability,[20]; first compound 1.265 µM,0.604
same,relative viability,[21]; first compound 0.04 µM,0.583
same,relative viability,[21]; first compound 0.1265 µM,0.82
same,relative viability,[21]; first compound 0.4 µM,0.585
same,relative viability,[21]; first compound 1.265 µM,0.594
same,relative viability,[22]; first compound 0.04 µM,0.445
same,relative viability,[22]; first compound 0.1265 µM,0.442
same,relative viability,[22]; first compound 0.4 µM,0.382
same,relative viability,[22]; first compound 1.265 µM,0.383
same,relative viability,[23]; first compound 0.04 µM,0.396
same,relative viability,[23]; first compound 0.1265 µM,0.475
same,relative viability,[23]; first compound 0.4 µM,0.484
same,relative viability,[23]; first compound 1.265 µM,0.405
